{"source": "patent US6623740B1", "about": "“Structurally modified peptides that are resistant to peptidase degradation” (Ludwig Institute for Cancer Research, priority 1997, dated 2003)", "data": [{"smiles": "C[C@H](NC(=O)[C@@H](N)CCC(=O)O)C(=O)N[C@@H](CC(=O)O)C(=O)N1CCC[C@H]1C(=O)N[C@H](C(=O)NCC(=O)N[C@@H](Cc1c[nH]cn1)C(=O)N[C@@H](CO)C(=O)N[C@@H](Cc1ccc(O)cc1)C(=O)O)[C@@H](C)O", "note": "[MZ2-E]", "values": [{"measurement": "t ½ of degradation by peptidase present in human serum", "value": "½"}]}]}
